# Source: BindingDB's records for doi:10.1021/jm101401a (Sanford-Burnham Medical Research Institute, 2011)
# Biological target: T1, Mannose-6-phosphate isomerase (Homo sapiens, UniProt P34949)
# T1 sequence (P34949 whole entry): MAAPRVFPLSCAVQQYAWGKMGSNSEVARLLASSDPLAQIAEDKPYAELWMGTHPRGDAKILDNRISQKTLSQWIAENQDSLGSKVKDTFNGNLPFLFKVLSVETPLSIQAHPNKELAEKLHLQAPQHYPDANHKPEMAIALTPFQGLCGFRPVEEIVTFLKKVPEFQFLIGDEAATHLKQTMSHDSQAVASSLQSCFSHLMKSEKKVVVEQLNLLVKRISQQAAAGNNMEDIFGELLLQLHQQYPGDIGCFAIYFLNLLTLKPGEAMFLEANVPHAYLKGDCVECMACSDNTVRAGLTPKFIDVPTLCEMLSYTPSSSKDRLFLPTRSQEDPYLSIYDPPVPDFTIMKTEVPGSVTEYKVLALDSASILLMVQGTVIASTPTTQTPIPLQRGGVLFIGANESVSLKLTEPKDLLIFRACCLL
# Experiment: Inhibition of human purified phosphomannose isomerase
row,IC50,Structure (SMILES)
1,> 10 µM,"C=CCn1c(=O)c(=Cc2cc(OC)c(OC)c(OC)c2)s/c1=C(/C#N)c1nc2ccccc2n1C [2-(1-methyl-2-benzimidazolyl)-2-[4-oxo-3-prop-2-enyl-5-[(3,4,5-trimethoxyphenyl)methylidene]-2-thiazolidinylidene]acetonitrile]"
2,> 10 µM,Oc1c(-c2ccccc2)sc2ccccc12 [2-phenyl-1-benzothiophen-3-one]
